Where “and” joins values, the source holds several entries; their conditions need not be identical. Equal values may be shown once.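 Assay format: 96-well plates, 48-hour exposure. GI50: concentration for 50% inhibition of growth. TGI: total growth inhibition.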
Columns and labels:
Assay in all cases: growth of human tumour cells (NCI), 48 h
786-0 renal = system: 786-0 renal
A498 renal = system: A498 renal
A549 NSCLC = system: A549 NSCLC
CAKI-1 renal = system: CAKI-1 renal
CCRF-CEM leukemia = system: CCRF-CEM leukemia
COLO 205 colon = system: COLO 205 colon
DMS 114 small cell lung = system: DMS 114 small cell lung
DMS 273 small cell lung = system: DMS 273 small cell lung
DU-145 prostate = system: DU-145 prostate
EKVX NSCLC = system: EKVX NSCLC
HCC-2998 colon = system: HCC-2998 colon
HCT-116 colon = system: HCT-116 colon
HCT-15 colon = system: HCT-15 colon
HL-60(TB) leukemia = system: HL-60(TB) leukemia
HOP-62 NSCLC = system: HOP-62 NSCLC
HOP-92 NSCLC = system: HOP-92 NSCLC
HT29 colon = system: HT29 colon
IGROV1 ovarian = system: IGROV1 ovarian
K-562 leukemia = system: K-562 leukemia
KM12 colon = system: KM12 colon
LOX IMVI melanoma = system: LOX IMVI melanoma
LXFL 529 NSCLC = system: LXFL 529 NSCLC
M14 melanoma = system: M14 melanoma
M19-MEL melanoma = system: M19-MEL melanoma
MALME-3M melanoma = system: MALME-3M melanoma
MCF7 breast = system: MCF7 breast
MDA-MB-231 breast = system: MDA-MB-231 breast
MDA-MB-435 = system: MDA-MB-435
MDA-N = system: MDA-N
MOLT-4 leukemia = system: MOLT-4 leukemia
NCI-H226 lung = system: NCI-H226 lung
NCI-H23 lung = system: NCI-H23 lung
NCI-H460 lung = system: NCI-H460 lung
NCI-H522 lung = system: NCI-H522 lung
NCI/ADR-RES ovarian = system: NCI/ADR-RES ovarian
OVCAR-3 ovarian = system: OVCAR-3 ovarian
OVCAR-4 ovarian = system: OVCAR-4 ovarian
OVCAR-5 ovarian = system: OVCAR-5 ovarian
OVCAR-8 ovarian = system: OVCAR-8 ovarian
RPMI-8226 leukemia = system: RPMI-8226 leukemia
RXF 393 renal = system: RXF 393 renal
SF-268 CNS = system: SF-268 CNS
SF-295 CNS = system: SF-295 CNS
SF-539 CNS = system: SF-539 CNS
SK-MEL-2 melanoma = system: SK-MEL-2 melanoma
SK-MEL-28 melanoma = system: SK-MEL-28 melanoma
SK-MEL-5 melanoma = system: SK-MEL-5 melanoma
SNB-19 CNS = system: SNB-19 CNS
SNB-75 CNS = system: SNB-75 CNS
SR leukemia = system: SR leukemia
SW-620 colon = system: SW-620 colon
T-47D breast = system: T-47D breast
U251 CNS = system: U251 CNS
UACC-257 melanoma = system: UACC-257 melanoma
UO-31 renal = system: UO-31 renal
ACHN renal = system: ACHN renal
DLD-1 colon = system: DLD-1 colon
HOP-18 NSCLC = system: HOP-18 NSCLC
KM20L2 colon = system: KM20L2 colon
SK-OV-3 ovarian = system: SK-OV-3 ovarian
SN12C renal = system: SN12C renal
SNB-78 CNS = system: SNB-78 CNS
TK-10 renal = system: TK-10 renal
UACC-62 melanoma = system: UACC-62 melanoma
RXF-631 renal = system: RXF-631 renal

## CC[C@@]1(O)C(=O)OCc2c1cc1n(c2=O)Cc2cc3cc(OC)ccc3nc2-1
786-0 renal
  GI50: 15.9 nM
A498 renal
  GI50: 27.2 nM
  TGI: 1800 nM and 307 nM
A549 NSCLC
  GI50: 67.2 nM and 10.9 nM
  TGI: 2920 nM
CAKI-1 renal
  TGI: 90.8 nM
CCRF-CEM leukemia
  GI50: 2.32 nM
COLO 205 colon
  GI50: 419 nM and 143 nM
DMS 114 small cell lung
  TGI: 1020 nM
DMS 273 small cell lung
  TGI: 1580 nM
DU-145 prostate
  GI50: 21.9 nM
  TGI: 41 nM
EKVX NSCLC
  GI50: 1100 nM
  TGI: > 100000 nM
HCC-2998 colon
  GI50: 147 nM and 65.6 nM
  TGI: 290 nM and 1090 nM and 388 nM
HCT-116 colon
  GI50: 44.2 nM
  TGI: 573 nM and 481 nM
HCT-15 colon
  GI50: 223 nM
  TGI: 8120 nM
HL-60(TB) leukemia
  GI50: 8.73 nM
  TGI: 17.2 nM
HOP-62 NSCLC
  TGI: 948 nM
HOP-92 NSCLC
  GI50: 25.1 nM
  TGI: 84 nM and 410 nM
HT29 colon
  GI50: 86.4 nM
  TGI: 238 nM
IGROV1 ovarian
  TGI: 945 nM
K-562 leukemia
  GI50: 57.1 nM and 34.4 nM
  TGI: > 100000 nM
KM12 colon
  GI50: 273 nM
  TGI: 2580 nM and 1540 nM
LOX IMVI melanoma
  GI50: 12.5 nM
  TGI: 173 nM and 298 nM and 105 nM
LXFL 529 NSCLC
  TGI: 2510 nM
M14 melanoma
  GI50: 127 nM
M19-MEL melanoma
  TGI: 1480 nM
MALME-3M melanoma
  GI50: 25.7 nM
  TGI: 548 nM
MCF7 breast
  TGI: 196 nM
MDA-MB-231 breast
  GI50: 735 nM
MDA-MB-435
  GI50: 117 nM
  TGI: 247 nM and 333 nM
MDA-N
  TGI: 1040 nM
MOLT-4 leukemia
  GI50: 3.8 nM
  TGI: 28.9 nM
NCI-H226 lung
  TGI: 63 nM and 96.8 nM and 20.6 nM
NCI-H23 lung
  GI50: 27.3 nM
NCI-H460 lung
  GI50: 4.33 nM
  TGI: 152 nM and 211 nM and 188 nM
NCI-H522 lung
  TGI: 437 nM and 1990 nM
NCI/ADR-RES ovarian
  GI50: 20.4 nM
  TGI: 169 nM
OVCAR-3 ovarian
  GI50: 367 nM and 747 nM
  TGI: 5730 nM and 4540 nM
OVCAR-4 ovarian
  GI50: 682 nM
OVCAR-5 ovarian
  GI50: 643 nM
  TGI: 562 nM
OVCAR-8 ovarian
  GI50: 15.3 nM and 23.9 nM
  TGI: 297 nM and 350 nM
RPMI-8226 leukemia
  GI50: 41.1 nM
  TGI: 8460 nM and 1230 nM
RXF 393 renal
  GI50: 101 nM
  TGI: 82.8 nM and 561 nM
SF-268 CNS
  GI50: 17 nM
SF-295 CNS
  TGI: 93.3 nM and 800 nM
SF-539 CNS
  TGI: 36.1 nM and 96.2 nM
SK-MEL-2 melanoma
  TGI: 529 nM
SK-MEL-28 melanoma
  GI50: 894 nM
SK-MEL-5 melanoma
  TGI: 116 nM and 27.8 nM
SNB-19 CNS
  TGI: 4190 nM
SNB-75 CNS
  TGI: 49.1 nM
SR leukemia
  GI50: 4.61 nM
SW-620 colon
  GI50: 39.1 nM
  TGI: 4790 nM
T-47D breast
  GI50: 18.5 nM
U251 CNS
  TGI: 54.1 nM
UACC-257 melanoma
  GI50: 99.8 nM and 170 nM
  TGI: 1540 nM
UO-31 renal
  GI50: 249 nM

## O=C(CSc1nnc(Cc2ccccc2)o1)Nc1ccc(Cl)cc1
786-0 renal
  TGI: > 100000 nM
A498 renal
  TGI: > 100000 nM
A549 NSCLC
  TGI: > 100000 nM
ACHN renal
  TGI: > 100000 nM
CAKI-1 renal
  TGI: > 100000 nM
CCRF-CEM leukemia
  TGI: > 100000 nM
COLO 205 colon
  TGI: > 100000 nM
DLD-1 colon
  TGI: > 100000 nM
DMS 114 small cell lung
  TGI: > 100000 nM
DMS 273 small cell lung
  TGI: > 100000 nM
EKVX NSCLC
  TGI: 92400 nM
HCC-2998 colon
  TGI: > 100000 nM
HCT-116 colon
  TGI: > 100000 nM
HCT-15 colon
  TGI: > 100000 nM
HL-60(TB) leukemia
  TGI: > 100000 nM
HOP-18 NSCLC
  TGI: > 100000 nM
HOP-62 NSCLC
  TGI: > 100000 nM
HT29 colon
  TGI: > 100000 nM
IGROV1 ovarian
  TGI: > 100000 nM
K-562 leukemia
  TGI: > 100000 nM
KM12 colon
  TGI: > 100000 nM
KM20L2 colon
  TGI: > 100000 nM
LOX IMVI melanoma
  TGI: > 100000 nM
LXFL 529 NSCLC
  TGI: > 100000 nM
M14 melanoma
  TGI: > 100000 nM
M19-MEL melanoma
  TGI: > 100000 nM
MALME-3M melanoma
  TGI: > 100000 nM
MOLT-4 leukemia
  TGI: > 100000 nM
NCI-H226 lung
  TGI: > 100000 nM
NCI-H23 lung
  TGI: > 100000 nM
NCI-H460 lung
  TGI: > 100000 nM
NCI-H522 lung
  TGI: > 100000 nM
OVCAR-3 ovarian
  TGI: > 100000 nM
OVCAR-4 ovarian
  TGI: > 100000 nM
OVCAR-5 ovarian
  TGI: > 100000 nM
OVCAR-8 ovarian
  TGI: > 100000 nM
RPMI-8226 leukemia
  TGI: > 100000 nM
RXF 393 renal
  TGI: > 100000 nM
SF-295 CNS
  TGI: > 100000 nM
SF-539 CNS
  TGI: > 100000 nM
SK-MEL-2 melanoma
  TGI: > 100000 nM
SK-MEL-28 melanoma
  TGI: > 100000 nM
SK-MEL-5 melanoma
  TGI: > 100000 nM
SK-OV-3 ovarian
  TGI: > 100000 nM
SN12C renal
  TGI: > 100000 nM
SNB-19 CNS
  TGI: > 100000 nM
SNB-75 CNS
  TGI: > 100000 nM
SNB-78 CNS
  TGI: > 100000 nM
SW-620 colon
  TGI: > 100000 nM
TK-10 renal
  TGI: > 100000 nM
U251 CNS
  TGI: > 100000 nM
UACC-257 melanoma
  TGI: > 100000 nM
UACC-62 melanoma
  TGI: > 100000 nM
UO-31 renal
  TGI: > 100000 nM

## CCOP(=O)(CC(=O)C1=C(O)C(CCCNC(=O)OC(C)(C)C)N(Cc2ccc(OC)c(OC)c2)C1=O)OCC (configuration not stated)
786-0 renal
  TGI: > 100000 nM
A498 renal
  TGI: > 100000 nM
A549 NSCLC
  TGI: > 100000 nM
ACHN renal
  TGI: > 100000 nM
CCRF-CEM leukemia
  TGI: > 100000 nM
COLO 205 colon
  TGI: > 100000 nM
DLD-1 colon
  TGI: > 100000 nM
DMS 114 small cell lung
  TGI: > 100000 nM
DMS 273 small cell lung
  TGI: > 100000 nM
EKVX NSCLC
  TGI: > 100000 nM
HCC-2998 colon
  TGI: > 100000 nM
HCT-116 colon
  TGI: > 100000 nM
HL-60(TB) leukemia
  TGI: > 100000 nM
HOP-18 NSCLC
  TGI: > 100000 nM
HOP-62 NSCLC
  TGI: > 100000 nM
HT29 colon
  TGI: > 100000 nM
IGROV1 ovarian
  TGI: > 100000 nM
K-562 leukemia
  TGI: > 100000 nM
KM12 colon
  TGI: > 100000 nM
KM20L2 colon
  TGI: > 100000 nM
LOX IMVI melanoma
  TGI: > 100000 nM
LXFL 529 NSCLC
  TGI: > 100000 nM
M14 melanoma
  TGI: > 100000 nM
M19-MEL melanoma
  TGI: > 100000 nM
MALME-3M melanoma
  TGI: > 100000 nM
MOLT-4 leukemia
  TGI: > 100000 nM
NCI-H226 lung
  TGI: > 100000 nM
NCI-H23 lung
  TGI: > 100000 nM
NCI-H460 lung
  TGI: > 100000 nM
NCI-H522 lung
  TGI: > 100000 nM
OVCAR-3 ovarian
  TGI: > 100000 nM
OVCAR-4 ovarian
  TGI: > 100000 nM
OVCAR-5 ovarian
  TGI: > 100000 nM
OVCAR-8 ovarian
  TGI: > 100000 nM
RPMI-8226 leukemia
  TGI: > 100000 nM
RXF 393 renal
  TGI: > 100000 nM
RXF-631 renal
  TGI: > 100000 nM
SF-268 CNS
  TGI: > 100000 nM
SF-295 CNS
  TGI: > 100000 nM
SF-539 CNS
  TGI: > 100000 nM
SK-MEL-2 melanoma
  TGI: > 100000 nM
SK-MEL-28 melanoma
  TGI: > 100000 nM
SK-MEL-5 melanoma
  TGI: > 100000 nM
SN12C renal
  TGI: > 100000 nM
SNB-19 CNS
  TGI: > 100000 nM
SNB-75 CNS
  TGI: > 100000 nM
SR leukemia
  TGI: > 100000 nM
SW-620 colon
  TGI: > 100000 nM
TK-10 renal
  TGI: > 100000 nM
U251 CNS
  TGI: > 100000 nM
UACC-257 melanoma
  TGI: > 100000 nM
UACC-62 melanoma
  TGI: > 100000 nM
UO-31 renal
  TGI: > 100000 nM

— PubChem BioAssay (NCI)
